Laboratory results as given in US20120295907A1, “INSECTICIDAL COMPOUNDS” (SYNGENTA CROP PROTECTION, LLC, priority 2009, published 2012).

Assays:
Format in all cases: in vivo
[1] = test system: Thrips tabaci; assay: Thrips tabaci (Onion Thrips) sunflower leaf disc spray test; conditions: foliar, 168 h, 200 ppm spray on sunflower leaf discs, population of mixed ages, 7 days, mortality
[2] = test system: Diabrotica balteata; assay: Diabrotica balteata (Corn Root Worm) artificial diet MTP test; conditions: 120 h, 200 ppm (concentration in well 18 ppm), L2 larvae, 5 days, larval mortality, growth regulation
[3] = test system: Plutella xylostella; assay: Plutella xylostella (Diamond Back Moth) artificial diet MTP test; conditions: 144 h, 200 ppm (concentration in well 18 ppm), L2 larvae, 6 days, larval mortality, growth regulation
[4] = test system: Tetranychus urticae; assay: Tetranychus urticae (Two-Spotted Spider Mite) bean leaf disc spray test; conditions: foliar, 192 h, 200 ppm spray on bean leaf discs, mite populations of mixed ages, 8 days, egg, larval and adult mortality, read-out: control of Tetranychus urticae
[5] = test system: Heliothis virescens; assay: Heliothis virescens (Tobacco Budworm) egg test on artificial diet; conditions: 96 h, 200 ppm (concentration in well 18 ppm), eggs 0-24 h old on artificial diet, 4 days, egg mortality, larval mortality, growth regulation
[6] = test system: Myzus persicae; assay: Myzus persicae (Green Peach Aphid) sunflower leaf disc spray test; conditions: foliar, 144 h, 200 ppm spray on sunflower leaf discs, aphid population of mixed ages, 6 DAT, mortality
[7] = test system: Spodoptera littoralis; assay: Spodoptera littoralis (Egyptian Cotton Leafworm) cotton leaf disc spray test; conditions: foliar, 72 h, 200 ppm spray on cotton leaf discs, L1 larvae, mortality, feeding behavior, growth regulation 3 DAT

Measured: pest or weed control at 200 ppm

CCc1cc(C(F)(C(F)(F)F)C(F)(F)F)cc(C)c1NC(=O)c1cccc(NC(=O)c2ccc(F)cc2Cl)c1OC [J27]
not listed: [7]
≥ 80%: all other assays above

CCc1cc(C(F)(C(F)(F)F)C(F)(F)C(F)(F)F)cc(C)c1NC(=O)c1cccc(NC(=O)c2ccc([N+](=O)[O-])cc2C)c1OC (stereo not drawn) [A22]
not listed: [5]
≥ 80%: all other assays above

COc1c(NC(=O)c2ccncc2C)cccc1C(=O)Nc1c(Cl)cc(C(F)(C(F)(F)F)C(F)(F)C(F)(F)F)cc1Br (stereo not drawn) [B82]
≥ 80%: all assays above

COc1c(NC(=O)c2cccc(Cl)c2C)cccc1C(=O)Nc1c(Cl)cc(C(F)(C(F)(F)F)C(F)(F)C(F)(F)F)cc1Br (stereo not drawn) [B156]
≥ 80%: all assays above

COc1ccc(C(=O)Nc2cccc(C(=O)Nc3c(Cl)cc(C(F)(C(F)(F)F)C(F)(F)C(F)(F)F)cc3Br)c2OC)cc1 (stereo not drawn) [B28]
not listed: [5]
≥ 80%: all other assays above

COc1c(NC(=O)c2ccc(F)cc2)cccc1C(=O)Nc1c(Cl)cc(C(F)(C(F)(F)F)C(F)(F)F)cc1Cl [E17]
≥ 80%: all assays above

COc1c(NC(=O)c2ccnc(C)c2Cl)cccc1C(=O)Nc1c(Cl)cc(C(F)(C(F)(F)F)C(F)(F)C(F)(F)F)cc1Br (stereo not drawn) [B93]
≥ 80%: all assays above

COc1c(NC(=O)c2ccc(C#N)cc2)cccc1C(=O)Nc1c(Cl)cc(C(F)(C(F)(F)F)C(F)(F)F)cc1Cl [E4]
≥ 80%: all assays above

COc1c(NC(=O)c2ccncc2Cl)cccc1C(=O)Nc1c(Cl)cc(C(F)(C(F)(F)F)C(F)(F)C(F)(F)F)cc1Br (stereo not drawn) [B66]
≥ 80%: all assays above

COc1c(NC(=O)c2ccc([N+](=O)[O-])cc2)cccc1C(=O)Nc1c(C)cc(C(F)(C(F)(F)F)C(F)(F)F)cc1C [K2]
≥ 80%: all assays above

COc1c(NC(=O)c2cc(F)cc(F)c2)cccc1C(=O)Nc1c(Cl)cc(C(F)(C(F)(F)F)C(F)(F)C(F)(F)F)cc1Br (stereo not drawn) [B168]
≥ 80%: all assays above

COc1c(NC(=O)c2ccncc2)cccc1C(=O)Nc1c(Cl)cc(C(F)(C(F)(F)F)C(F)(F)C(F)(F)F)cc1Br (stereo not drawn) [B54]
not listed: [5]
≥ 80%: all other assays above

COc1c(NC(=O)c2ccc(C(F)(F)F)cc2)cccc1C(=O)Nc1c(Cl)cc(C(F)(C(F)(F)F)C(F)(F)F)cc1Cl [E13]
≥ 80%: all assays above

COc1c(NC(=O)c2ccc([N+](=O)[O-])c(N)c2)cccc1C(=O)Nc1c(Cl)cc(C(F)(C(F)(F)F)C(F)(F)C(F)(F)F)cc1Br (stereo not drawn) [B174]
≥ 80%: all assays above

CCc1cc(C(F)(C(F)(F)F)C(F)(F)C(F)(F)F)cc(C)c1NC(=O)c1cccc(NC(=O)c2ccc(C#N)cc2)c1OC (stereo not drawn) [A4, N-[2-ethyl-4-(1,2,2,3,3,3-hexafluoro-1-trifluoromethylpropyl)-6-methyl-phenyl]-3-(4-cyanobenzoylamino)-2-methoxybenzamide]
≥ 80%: all assays above

COc1c(NC(=O)c2ccc(C#N)cc2)cccc1C(=O)Nc1c(Cl)cc(C(F)(C(F)(F)F)C(F)(F)C(F)(F)F)cc1Cl (stereo not drawn) [C6]
≥ 80%: all assays above

COc1c(NC(=O)c2cncnc2)cccc1C(=O)Nc1c(Cl)cc(C(F)(C(F)(F)F)C(F)(F)C(F)(F)F)cc1Br (stereo not drawn) [B111]
≥ 80%: all assays above

CCc1cc(C(F)(C(F)(F)F)C(F)(F)C(F)(F)F)cc(C)c1NC(=O)c1cccc(NC(=O)c2ccc(Cl)nc2)c1OC (stereo not drawn) [A17]
≥ 80%: all assays above

COc1c(NC(=O)c2cc(C)nn2C)cccc1C(=O)Nc1c(Cl)cc(C(F)(C(F)(F)F)C(F)(F)C(F)(F)F)cc1Br (stereo not drawn) [B42]
≥ 80%: all assays above

CCc1cc(C(F)(C(F)(F)F)C(F)(F)C(F)(F)F)cc(C)c1NC(=O)c1cccc(NC(=O)c2ccnc(Cl)c2)c1OC (stereo not drawn) [A10]
≥ 80%: all assays above

COc1c(NC(=O)c2ccc(F)cc2Cl)cccc1C(=O)Nc1c(C)cc(C(F)(C(F)(F)F)C(F)(F)C(F)(F)F)cc1C (stereo not drawn) [F30]
≥ 80%: all assays above

COc1c(NC(=O)c2cc(F)ccc2F)cccc1C(=O)Nc1c(Cl)cc(C(F)(C(F)(F)F)C(F)(F)C(F)(F)F)cc1Br (stereo not drawn) [B153]
≥ 80%: all assays above

COc1c(NC(=O)c2ccccc2Br)cccc1C(=O)Nc1c(Cl)cc(C(F)(C(F)(F)F)C(F)(F)C(F)(F)F)cc1Br (stereo not drawn) [B36]
≥ 80%: all assays above

CCc1cc(C(F)(C(F)(F)F)C(F)(F)C(F)(F)F)cc(C)c1NC(=O)c1cccc(NC(=O)c2ccc(F)cc2Cl)c1OC (stereo not drawn) [A3, N-[2-ethyl-4-(1,2,2,3,3,3-hexafluoro-1-trifluoromethylpropyl)-6-methylphenyl]-3-(4-fluoro-2-chlorobenzoylamino)-2-methoxybenzamide]
not listed: [3] | [5]
≥ 80%: all other assays above
